Measured values published in patent US10829458B2 (Araxes Pharma LLC, priority 2015, dated 2020).

Key:
[1] = biological target: T1, KRAS G12C 1-169, his-tagged protein, GDP-loaded (Homo sapiens, UniProt P01116, G12C); test: Biochemical assay: covalent modification of KRAS G12C measured by mass spectrometry (RapidFire/TOF or Q-Exactive); conditions: covalent binding to KRAS G12C; compounds of structure (III)
T1 construct: KRAS G12C 1-169, his-tagged protein, GDP-loaded
How it was run: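 GDP-loaded his-tagged KRAS G12C 1-169 at 2 μM in 20 mM Hepes, 150 mM NaCl, 1 mM MgCl2 incubated at room temperature with compound (10, 30 or 100 μM final, 2% DMSO) for 30 min, 2 h or 24 h, then quenched with formic acid. Intact-protein LC-MS (RapidFire/TOF or Q-Exactive) with deconvolution quantified modified versus unmodified protein.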

[2] = Whole blood stability; format: in vitro ADME; conditions: 37° C., time points 0, 1, 2, 4 hr, LC/MS/MS
Procedure: Test compounds were prepared as a 500 μM stock solution in DMSO (Adding 10 μl of 10 mM DMSO stock solution to 190 μl of 100% DMSO). Whole blood was thawed on ice. A whole blood plate was prepared by adding 460 μl of the whole blood (different species as needed) to a 96-well in ml deep well plate. The whole blood plate was preincubated at 37° C. for 10 min. 4 μl of compound solution and 396 μl of whole blood was added to the plate and mixed thoroughly. Each sample was aliquoted (30 μl) to the incubation plate (cluster tubes) and quenched at time zero with ice-cold 100% ACN, and the incubation plates were added to the 37° C. incubator (200 μl).
The time zero sample was maintained at 4° C. until centrifuged. All other samples were quench at different time points (1, 2, 4 hr), vortexed for 30 seconds and centrifuged at 3500 rpm for 15 min at 4° C. 30 μl of supernatant was added to 170 μl 0.1% FA aqueous solution and the sample was analyzes by LC/MS/MS.

Row | half-life at 5 µM ([2]; mouse, whole blood, read-out: Whole Blood Stability (T1/2) hr. Mouse (converted)) | Whole Blood Stability (T1/2) hr. Mouse [2] | Compound | Binding % [1]
1 | > 12 h |  | C=CC(=O)N1CCN(c2ncnc3c(F)c(-c4c(O)cccc4F)c(Cl)cc23)[C@@H](C)C1 (atropisomer, axis not shown) [III-23, 1-((S)-4-((R)-6-chloro-8-fluoro-7-(2-fluoro-6-hydroxy-phenyl)quinazolin-4-yl)-3-methyl-piperazin-1-yl)prop-2-en-1-one] | + (+ indicates binding activity up to 50%)
2 |  | 11.1 h | C=CC(=O)N1[C@H](C)CN(c2ncnc3c(F)c(-c4c(O)cccc4F)c(Cl)cc23)C[C@@H]1C [III-15, 1-((2S,6R)-4-(6-chloro-8-fluoro-7-(2-fluoro-6-hydroxy-phenyl)quinazolin-4-yl)-2,6-dimethyl-piperazin-1-yl)prop-2-en-1-one] | ++ (++ indicates activity from 50% to 90%)
